The values that follow are results of earlier work, collected in patent publication US20080066744A1, “PROCESS FOR PRODUCING METERED DOSE INHALER FORMULATIONS” (Schering Corporation, priority 2002, published 2008).

Where two headings read alike, the source gives them in different places.

Turning to `C[C@@H]1C[C@H]2[C@@H]3CCC4=CC(=O)C=C[C@]4(C)[C@@]3(Cl)[C@@H](O)C[C@]2(C)[C@@]1(OC(=O)c1ccco1)C(=O)CCl` [Mometasone furoate, 9,21-Dichloro-11(beta), 17-dihydroxy-16(alpha)-methylpregna-1,4-diene-3,20-dione 17-(2 furoate)], the solubility result runs as follows: (in acetone) “soluble”; (in chloroform) “soluble”; (in ethanol) “slightly soluble”; (in isopropanol) “slightly soluble”; (in methanol) “slightly soluble”; (in tetrahydrofuran) “freely soluble”. Also, under “in water”, the solubility entry is “practically insoluble”.
As for “(alpha) ^1[(tert-Butylamino)methyl]4-hydroxy-m-xylene-(alpha),(alpha)′-diol sulfate (2:1)(salt) [Albuterol sulfate]”, the solubility entry (in ethanol) is “slightly soluble” and the solubility entry (in water) is “soluble”.
